From US9120789B2, “1-(5-tert-butyl-2-phenyl-2H-pyrazol-3-yl)-3-[2-fluoro-4-(1-methyl-2-oxo-2,3-dihydro-1H-imidazo[4,5-b]pyridin-7-yloxy)-phenyl]-urea and related compounds and their use in therapy” (CANCER RESEARCH TECHNOLOGY LIMITED, priority 2010, dated 2015) come the findings set out here.

Experiment [1] concerns pERK in mutant BRAF WM266.4 cells. Kind of experiment: Assay B - cell based phospho-ERK assay. As to conditions: Homo sapiens, WM 266-4, 6 hours incubation. The method, then: (§1) Values for the blank (Empty Vector) are subtracted from all values. The DMSO controls are set as 100% activity and assay points (the response) are calculated as a percentage of the DMSO control. Data are plotted using Graphpad Prism software and a non-linear regression line is calculated using a variable slope sigmoidal dose-response equation: Y=Bottom+[Top−Bottom]/[1+10^((Log EC50−X)*HillSlope)] where X is the logarithm of concentration and Y is the response. The IC50 generated by this procedure is the concentration of the drug that produces a percentage control fluorescence value midway between the saturation, and zero-effect plateaus. Three independent assays are usually performed and the mean IC50 is reported. Biological Methods—Assay B—Cell Based Phosho-ERK Assay
Compounds were assessed using a cell-based assay which was performed according to the following protocol.
Plate out 16,000 mutant BRAF WM266.4 cells/well in 99 μL medium in a 96-well plate.
1. Add 1 μL inhibitor (test compound) to the cells (total […]).
2. Incubate the cells with test compound for 6 hours at 37° C.
3. Aspirate off the solution from all of the wells.
4. Fixate the cells with 100 μL 4% formaldehyde/0.25% Triton X-100 PBS per well.
5. Incubate the plate for 1 hour at 4° C.
6. Aspirate off the fixing solution and add 300 μL TBS per well.
7. Leave the plate overnight at 4° C.
1. Wash the plate 2× with 200 μL PBS per well.
2. Block with 100 μL 5% dried milk in TBS.
3. Incubate the plate for 20 minutes at 37° C.
4. Wash the plate 2× with 0.1% tween/H2O.
5. Add 50 μL of 3 μg/mL primary antibody pERK (Sigma M8159), diluted in 5% milk powder/TBS, to each well.
6. Incubate the plate for 2 hours at 37° C.
7. Wash the plate 3× with 0.1% tween/H2O.
8. Add 50 μL of 0.45 μg/mL secondary Europium-labelled anti-mouse antibody (Perkin Elmer) to each well.
9. Incubate the plate for 1 hour at 37° C.
10. Wash the plate 3× with 0.1% tween/H2O.
11. Add 100 μL enhancement solution (Perkin Elmer) to each well.
12. Leave the plate for approximately 10 minutes at room temperature before gently shaking the plate.
13. Read Europium Time Resolved Fluorescence in Victor2.
14. Wash the plate 2× with 0.1% tween/H2O.
15. Measure the protein concentration with BCA (Sigma) by adding 200 μL of solution per well.
16. Incubate the plate for 30 minutes at 37° C.
17. Read absorbance levels at 570 nm in a plate reader.
Note that Europium counts are normalised for protein levels by dividing counts by absorbance.
as §1, with “blank (no cells)” for “blank (Empty Vector)”, “the response).” for “the response.”, “Methods—Assay C—SRB Cell Proliferation” for “Methods—Assay B—Cell Based Phosho-ERK”, “Assay (SRB GI50)” for “Assay”

The subject of experiment [2] is SW620 human colorectal carcinoma cells (mutant RAS) xenograft. The experiment is described as follows: Xenograft study, mutant RAS SW620. It is filed as in vivo, mice. As to conditions: for Effect on tumour volume as compared to the control (in words) / Factor of tumour volume reduction as compared to the control: SW620 xenograft; for Factor of tumour volume reduction as compared to the control: over the timescale of the study; for Ratio of: Tumour Volume (Treatment)/Tumour Volume (Control) (mutant RAS SW620 xenograft): athymic mice, gavage once daily for 24 doses. Here is the method: Biological Methods—Xenograft Studies
SW620 human colorectal carcinoma cells (mutant RAS, 7×10^7) or A375M human melanoma cells (mutant BRAF, 10^7) were inoculated sub-cutaneously in suspension (0.2 mL) into the right flank of female Crl:CD1-Foxn1nu athymic mice. Groups were assigned to treatment following stratified allocation of tumour volumes. Treatment with test compound began between days 11-14 post-cell administration. For gavage, a suspension (DMSO:water, 1:19, v/v at 10 m L/kg) was administered. Control animals received a similar dosage of vehicle (DMSO:water, 1:19, v/v). Treatment with test compound was continued once daily for 24 doses.

The test system of experiment [3] is SW620 colorectal carcinoma cell line (mutant RAS). Kind of experiment: Assay C - SRB cell proliferation assay, SW620. It is filed as cell-based. The following applies: Homo sapiens, SW-620, 120 h; SW620, 5 days growth. Here is the method: as §1, with “blank (no cells)” for “blank (Empty Vector)”, “the response).” for “the response.”, “Methods—Assay C—SRB Cell Proliferation” for “Methods—Assay B—Cell Based Phosho-ERK”, “Assay (SRB GI50)” for “Assay”
(§2) Cell lines (e.g., WM266.4 and A375M melanoma cell lines; SW620 colorectal carcinoma cell line) are routinely cultured in DMEM or RPMI1640 supplemented with 10% foetal bovine serum, at 37° C., in 10% CO2 water saturated atmosphere. Cultures are maintained in exponential growth phase by sub-culturing before having become confluent (3-5 day intervals). Single cell suspensions are prepared by harvesting an 80 cm^2 tissue culture flask with 5 mL commercial trypsin EDTA. After 5 minutes, the detached cells are mixed with 5 mL fully complemented culture medium and centrifugally pelleted (1000 rpm for 7 minutes). After aspirating the supernatant, the cell pellet is re-suspended in 10 mL fresh medium and the cells fully disaggregated by drawing the whole volume up/down 5 times through a 19-gauge needle. The concentration of the cells is determined using a haemocytometer ( 1/10 dilution). A suitable volume to give at least a 2-fold excess for the number of tests being conducted, typically 100-200 mL, is prepared by diluting the cell suspension to 10,000-40,000/mL, and 100 μL/well dispensed into 96 well plates using a programmable 8-channel peristaltic pump, giving 1000-4000 cells/well, leaving column 12 blank. The plates are returned to the incubator for 24 hours to allow the cells to re-attach.
(§3) The compounds being tested are prepared at 10 mM in DMSO. Aliquots (24 μL) are diluted into 1.2 mL culture medium giving 200 μM, and 10 serial dilutions of 3× performed by transferring 80 μL to 160 μL. Aliquots (100 μL) of each dilution are added to the wells, using an 8-channel pipettor, thus performing a final further 2× dilution, and giving doses ranging from 100 μM to 0.005 μM. Column 11 receives plain culture medium only. Each compound is tested in quadruplicate, each replicate being the average of four wells.
(§4) After a further 5 days growth, the plates are emptied, and the cells are fixed in 10% trichloroacteic acid for 30 minutes at 4° C. After thorough rinsing in running tap water, the plates are dried, and stained by adding 50 μL of a solution of 0.1% sulphorhodamine-B in 1% acetic acid, for 10 minutes at room temperature. The stain is poured out and the plates thoroughly rinsed under a stream of 1% acetic acid, thus removing unbound stain, and dried. The bound stain is taken into solution by addition of 100 μL Tris buffer pH 8, followed by 10 minutes on a plate-shaker (approximately 500 rpm). The absorbance at 540 nm in each well (being proportional to the number of cells present) is determined using a plate reader.
(§5) After averaging the blank values in column 12 this was subtracted from all values, and results expressed as a percentage of the untreated value (column 11). […] The GI50 generated by this procedure is the concentration of the drug that produces a percentage control A540 midway between the saturation, and zero-effect plateaus.

The test system of experiment [4] is A375M melanoma cell line (mutant BRAF). The experiment is described as follows: Assay C - SRB cell proliferation assay, A375M. It is filed as cell-based. As to conditions: Homo sapiens, 120 h, 5 days growth. The method, then: as §1, with “blank (no cells)” for “blank (Empty Vector)”, “the response).” for “the response.”, “Methods—Assay C—SRB Cell Proliferation” for “Methods—Assay B—Cell Based Phosho-ERK”, “Assay (SRB GI50)” for “Assay”
as §2, §3, §4, §5

By IC50 is commonly meant the concentration that gives 50% inhibition. A higher IC50 goes with a need for much substance. Usually GI50 stands for the concentration at which growth is held to half of that of the control. A high value points to lower sensitivity of the cells. In experiment [1], `Cn1c(=O)[nH]c2nccc(Oc3ccc(NC(=O)Nc4cc(C(C)(C)C)nn4-c4ccccc4)c(F)c3)c21` [AA-01, 1-(3-Tert-butyl-1-phenyl-1H-pyrazol-5-yl)-3-(2-fluoro-4-(1-N-methyl-2-oxo-2,3-dihydro-1H-imidazo[4,5-b]pyridin-7-yloxy)phenyl)urea] had an IC50 of 260 nM. In experiment [2], the “Effect on tumour volume as compared to the control (in words)” value is on record as “statistically significant efficacy”, the “Factor of tumour volume reduction as compared to the control” value is given as “about 3” and the “Ratio of: Tumour Volume (Treatment)/Tumour Volume (Control) (mutant RAS SW620 xenograft)” value (“Ratio of: Tumour Volume” for short) turned out to be 0.34. For the same compound, the GI50 in experiment [3] was found to be 167 nM. In experiment [4], this compound returned a GI50 of 138 nM.

Compound `Cn1c(=O)[nH]c2nccc(Oc3ccc(NC(=O)Nc4cc(C(C)(C)C)nn4-c4ccccc4)c4ccccc34)c21` [BB-01, 1-(3-Tert-butyl-1-phenyl-1H-pyrazol-5-yl)-3-(4-(1-methyl-2-oxo-2,3-dihydro-1H-imidazo[4,5-b]pyridin-7-yloxy)naphthalen-1-yl)urea] showed an IC50 in experiment [1] of 19 nM. The GI50 was found to be 1600 nM in experiment [3] and 52 nM in experiment [4].

Regarding `Cc1ccc(-n2nc(C(C)(C)C)cc2NC(=O)Nc2ccc(Oc3ccnc4[nH]c(=O)n(C)c34)c3ccccc23)cc1` [BB-02, 1-(1-N-p-tolyl-3-tert-butyl-pyrazol-5-yl)-3-(4-(2-oxo-2,3-dihydro-1-N-methyl-1H-imidazo[4,5-b]pyridin-7-yl-oxy)naphthalen-1-yl)urea], the IC50 in experiment [1] turned out to be 26 nM. In experiment [2], the “Effect on tumour volume as compared to the control (in words)” value was “statistically significant efficacy”, the “Factor of tumour volume reduction as compared to the control” value is “about 1.5” and the “Ratio of: Tumour Volume” value came out at 0.66. Besides, the GI50 in experiment [3] was determined as 1680 nM. For the same compound, in experiment [4], the GI50 stood at 101 nM.

On to `CC(C)(C)c1cc(NC(=O)Nc2ccc(Oc3ccnc4[nH]c(=O)[nH]c34)cc2)n(-c2ccccc2)n1` [XX-01, 1-(5-Tert-butyl-2-phenyl-2H-pyrazol-3-yl)-3-[4-(2-oxo-2,3-dihydro-1H-imidazo[4,5-b]pyridin-7-yloxy)-phenyl]-urea], for which the IC50 in experiment [1] is 620 nM. Moreover, in experiment [2], the “Effect on tumour volume as compared to the control (in words)” value is listed as “relatively little effect” and the “Ratio of: Tumour Volume” value was >1. In addition, in experiment [3], the GI50 is 840 nM. In addition, in experiment [4], the GI50 worked out at 1130 nM.

`Cc1ccc(-n2nc(C(C)(C)C)cc2NC(=O)Nc2ccc(Oc3ccnc4[nH]c(=O)n(C)c34)cc2)cc1` [XX-02, 1-(1-N-p-tolyl-3-tert-butyl-pyrazol-5-yl)-3-(4-(2-oxo-2,3-dihydro-1-N-methyl-1H-imidazo[4,5-b]pyridin-7-yl-oxy)phenyl)urea]: inhibition in experiment [1] was half-maximal at 90 nM (IC50). Besides, in experiment [2], the “Effect on tumour volume as compared to the control (in words)” value is on record as “relatively little effect” and the “Ratio of: Tumour Volume” value turned out to be 0.95. Moreover, the GI50 in experiment [3] is 450 nM. In experiment [4], the GI50 amounted to 250 nM.

As for `Cn1c(=O)n(C)c2c(Oc3ccc(NC(=O)Nc4cc(C(C)(C)C)nn4-c4ccccc4)c(F)c3)ccnc21` [XX-03, 1-(3-Tert-butyl-1-phenyl-1H-pyrazol-5-yl)-3-(4-(1,3-dimethyl-2-oxo-2,3-dihydro-1H-imidazo[4,5-b]pyridin-7-yloxy)-2-fluorophenyl)urea], the IC50 in experiment [1] was found to be 120 nM. For the same compound, in experiment [2], the “Effect on tumour volume as compared to the control (in words)” value is on record as “relatively little effect” and the “Ratio of: Tumour Volume” value is given as 0.97. In experiment [3], this compound displayed a GI50 of 6830 nM. In experiment [4], this compound came in with a GI50 of 247 nM.

As to `CC(C)(C)c1cc(NC(=O)Nc2ccc(Oc3ccnc4[nH]c(=O)[nH]c34)cc2)n(-c2ccc(F)cc2)n1` [XX-04, 1-[5-tert-Butyl-2-(4-fluoro-phenyl)-2H-pyrazol-3-yl]-3-[4-(2-oxo-2,3-dihydro-1H-imidazo[4,5-b]pyridin-7-yloxy)-phenyl]urea], half-maximal inhibition in experiment [1] (IC50) required 200 nM. In experiment [2], the “Effect on tumour volume as compared to the control (in words)” value is recorded as “relatively little effect” and the “Ratio of: Tumour Volume” value is recorded as 0.87. The compound also had a GI50 in experiment [3] of 2720 nM. This compound came in with a GI50 in experiment [4] of 307 nM.
